In patent US10111877B2, “Modulators of androgen synthesis” (Tangent Reprofiling Limited, priority 2012, dated 2018):
Read-outs that look alike come from different tables or passages of the source.

Assays:
MCF7 cells = experiment: Cell growth inhibition, lysed cell LDH assay, breast cancer cell line; format: cell-based
Method: (§1) To determine whether Risperidone could be effective in inhibiting growth of cancer cells overexpressing HSD10, a lysed cell LDH assay was conducted using cells taken from a prostate cancer cell line, a lung cancer cell line, a breast cancer cell line, an ovarian cancer cell line, each of which was known to overexpress HSD10, and a non-cancerous cell line.
(§2) After incubation in the drug treatment for 96 hours at 37° C., 5% CO2, the supernatant was removed from all wells of cells, and cells washed with 200 μL PBS.
(§3) After removal of the PBS from the cell cultures described above, cell number was determined using a lysed cell LDH assay. Cells were lysed with 0.9% Triton-X in PBS for 2 hours at 37° C., 5% CO2 and 50 μL of this cell lysate was transferred to a fresh 96 well plate. About 50 μL of CytoTox 96 assay reagent was added to the transferred cell lysate and this mixture was incubated at room temperature in the dark for 20 minutes. After the addition of 50 μL stop reagent, the optical absorbance was determined for each incubated mixture at 492 nm. […] The mean and standard error was calculated from at least 3 wells.

VERO cells = experiment: Cell growth inhibition, lysed cell LDH assay, non-cancerous cell line; format: cell-based
Method: as §1, §2, §3

PC-3M-luc cells = experiment: Orthotopic prostate tumor mouse xenograft model; settings: single drug
Method: Immunodeficeint male mice (athymic nude mice) were acclimated to the laboratory for at least one week prior to implantation of tumor. PC-3M-luc cells obtained directly from in vitro culture were then injected into the prostate on Day 0. Animals were divided into six groups of 12 mice each. Primary tumor size and metastases were assessed by bioluminescence measurements on day 6, 13, 20, 27, 34, and 40. On day 7 a five week treatment regime was initiated. Both individual drug and high and low dose combination were examined by administering the drugs twice daily on an individual body weight basis using a dose escalation protocol (Table 7). If tumors grew above a pre-determined level, or mice lost more than 10% of bodyweight, they were culled. The primary tumor was excised, weighed and measured. Individual organs were imaged to assess metastatic burden.

BxPC-3 cells = experiment: Resazurin-based cell viability assay, pancreatic cancer cell line; settings: Homo sapiens, BXPC-3, read-out: growth inhibition of Bx-PC3 cells
Method: To determine whether Risperidone alone, or in combination with CLA could inhibit cell growth of cells taken from a pancreatic cancer cell line overexpressing HSD10, a resazurin-based cell viability assay was conducted on Bx-PC3 cells.
BxPC-3 cells are from a cell line derived from a human pancreatic adenocarcinoma and are known to overexpress HSD10. BxPC-3 cells were seeded at a density of 4,000 cells per well in a 384 well plate, and incubated at 37° C., 5% CO2 for 24 hours in standard growth media (RPMI nutrient media, 5% heat-inactivated Fetal Calf Serum, 2 mM L-Glutamine). The media was then removed by pipette and replaced with 50 μL BxPC-3 treatment media comprising 125 μM fatty acid-free BSA, 2 mM L-Glutamine and one of the following drug treatments: 0.1 μM, 2 μM, or 50 μM Risperidone; 0.1 μM, 2 μM, or 50 μM CLA; or 0.1 μM, 2 μM, or 50 μM of Risperidone and CLA (in equimolar amounts). After incubation in the drug treatment for 72 hours at 37° C., 5% CO2, viable cell number was determined using a resazurin-based cell viability assay (PRESTOBLUE®; Invitrogen, Carlsbad, Calif.). To each well, 7 μL of PRESTOBLUE® reagent was added and the plates incubated for 60 minutes at 37° C., 5% CO2. After incubation, the fluorescence intensity of each well was determined using a microplate reader by excitation and 570 nm and recording emission at 600 nm. The percentage of viable cell number was calculated by normalizing the experimental fluorescence intensity, where 100% is set to cells receiving no drug treatment (cells metabolizing at optimal rate), and 0% is set to readings from cells treated with Paclitaxel (cells not metabolizing at all due to their destruction by anti-cancer drug). A value under 50% could be considered a useful indication of potential efficacy.

A549 cells = experiment: Cell growth inhibition, lysed cell LDH assay, lung cancer cell line; format: cell-based
Method: To determine whether Risperidone alone, or in combination with CLA could inhibit cell growth of cells taken from a lung cancer cell line overexpressing HSD10, A549 cells were seeded at a density of 2,000 cells per well in a 96 well plate, and incubated at 37° C., 5% CO2 for 48 hours in standard growth media (DMEM nutrient media, 10% Fetal Calf Serum, 2 mM L-Glutamine). The media was then removed by pipette and replaced with the appropriate drug treatment as follows: 50 μM Risperidone in A459 treatment media (DMEM nutrient media, 125 uM fatty acid free BSA, 2 mM L-Glutamine); 50 μM CLA in A459 treatment media; 50 μM Risperidone and 50 μM CLA in A459 treatment media; 50 μM Risperidone and 1 μM Testosterone in A459 treatment media; 50 μM Risperidone, 50 μM CLA, and 1 μM Testosterone in A459 treatment media. After incubation in the drug treatment for 96 hours at 37° C., 5% CO2, the supernatant was removed from all wells of cells, and cells washed with 200 μL PBS.
After removal of the PBS from the cell cultures described above, cell number was determined using a lysed cell LDH assay. Cells were lysed with 0.9% Triton-X in PBS for 2 hours at 37° C., 5% CO2 and 50 μL of this cell lysate was transferred to a fresh 96 well plate. About 50 μL of CytoTox 96 assay reagent was added to the transferred cell lysate and this mixture was incubated at room temperature in the dark for 20 minutes. After the addition of 50 μL stop reagent, the optical absorbance was determined for each incubated mixture at 492 nm. The percentage cell number was calculated by normalizing the experimental counts, where 100% is set to cells receiving no drug treatment, and 0% is set to readings from wells containing no cells. The mean and standard error was calculated from at least 3 wells.

PC3 cells = experiment: Cell growth inhibition, lysed cell LDH assay, prostate cancer cell line; format: cell-based
Method: To determine whether Risperidone could be effective in inhibiting growth of cancer cells overexpressing HSD10, a lysed cell LDH assay was conducted using cells from a PC3 cell line.
(§4) PC3 cells are from a cell line derived from a hormone refractory prostate cancer and are known to overexpress HSD10. […] Cells line tests were carried out in presence and absence of testosterone for comparison. After incubation in the drug treatment for 96 hours at 37° C., 5% CO2, the supernatant was removed from all wells of cells, and cells washed with 200 μL PBS.
as §3, with “PBS,” for “PBS from the cell cultures described above,”, “assay (CytoTox 96 Non-radioactive cytotoxicity assay (LDH Assay); Promega, Co., Madison Wis.).” for “assay.”
To determine the optimal concentration of Risperidone and CLA necessary to inhibit cell growth, a lysed cell LDH assay was conducted using various concentration of Risperidone and CLA. PC3 cells were cultured and a lysed cell LDH assay was conducted as described above, except that the various drug treatments evaluated contained either 0 μM, 12.5 μM, 25 μM, or 50 μM Risperidone in combination with 0 μM, 6.25 μM, 12.5 μM, 25 μM, 50 μM, or 100 μM CLA (see Table 3).
as §3

HSD10 = target: T1, HSD10 (Homo sapiens, UniProt Q99714); experiment: HSD10 Enzyme Inhibition Assay; format: biochemical; settings: 50 μM drug
T1 construct: endogenous in cells; host or cells: PC3 cells
T1 sequence (Q99714 1-261): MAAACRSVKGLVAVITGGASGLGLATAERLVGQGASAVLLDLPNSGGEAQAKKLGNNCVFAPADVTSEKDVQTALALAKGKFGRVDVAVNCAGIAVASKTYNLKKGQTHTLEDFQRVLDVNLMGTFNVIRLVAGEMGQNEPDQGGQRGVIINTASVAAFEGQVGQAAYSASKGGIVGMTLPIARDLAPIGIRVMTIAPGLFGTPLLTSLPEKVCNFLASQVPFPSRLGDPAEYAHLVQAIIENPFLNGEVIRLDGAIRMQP
Method: An HSD10 inhibition assay was performed to determine the effect of several anti-psychotics on enzyme activity.
as §4
as §3, with “PBS,” for “PBS from the cell cultures described above,”, “assay (CytoTox 96 Non-radioactive cytotoxicity assay (LDH Assay); Promega, Co., Madison Wis.).” for “assay.”

OVCAR-3 cells = experiment: Cell growth inhibition, lysed cell LDH assay, ovarian cancer cell line; format: cell-based
Method: as §1, §2, §3

[1] = 50 μM Risperidone and/or 50 μM CLA, 1 μM Testosterone (T) where added, 96 hours

**Q.** What does the source list for `Cc1nc2n(c(=O)c1CCN1CCC(c3noc4cc(F)ccc34)CC1)CCCC2` [Risperidone, 3-[2-[4-(6-fluoro-1,2-benzoxazol-3-yl)piperidin-1-yl]ethyl]-2-methyl-6,7,8,9-tetrahydropyrido[1,2-a]pyrimidin-4-one]?
**A.** Percentage of Lysed Cells (MCF7 cells; [1]): 35 ± 2.4%; inhibition at 50 µM (MCF7 cells; Homo sapiens, 50 μM): ~65%; effect on growth of cells from the non-cancerous cell line VERO (VERO cells; 50 μM): neither Risperidone nor CLA had any measurable effect; Percentage of Lysed Cells (VERO cells; VERO, 50 μM Risperidone and/or 50 μM CLA, 1 μM Testosterone (T) where added, 96 hours): 94 ± 1.7%; body weight throughout the study (PC-3M-luc cells; by Day 40): maintained a constant weight; animal loss (PC-3M-luc cells; by day 34): about 10%; Tumor Growth Inhibition (PC-3M-luc cells; calculated on Day 34, dosing per Table 7): 16%; Animal Survival (overall survivorship) (PC-3M-luc cells; day 40, dosing per Table 7): 33%; inhibition at 50 µM (BxPC-3 cells): ~60%; Percentage of Lysed Cells (A549 cells; A549, 50 μM Risperidone and/or 50 μM CLA, 1 μM Testosterone (T) where added, 96 hours): 38 ± 1.9%; inhibition at 50 µM (A549 cells; Homo sapiens, A549, read-out: growth inhibition of A549 cells): > 60%; Percentage of Lysed Cells (PC3 cells; 12.5 μM Risperidone, 0 μM CLA (Table 4)): 81 ± 3.6%; Percentage of Lysed Cells (PC3 cells; 12.5 μM of each drug, 96 hours, 100% = no drug treatment (Table 3)): 102 ± 5.4%; Percentage of Lysed Cells (PC3 cells; 25 μM Risperidone, 0 μM CLA (Table 4)): 73 ± 2.2%; Percentage of Lysed Cells (PC3 cells; 25 μM of each drug, 96 hours, 100% = no drug treatment (Table 3)): 93 ± 0.51%; Percentage of Lysed Cells (PC3 cells; 50 μM Risperidone, 0 μM CLA (Table 4)): 79 ± 0.7%; Percentage of Lysed Cells (PC3 cells; 50 μM of each drug, 96 hours, 100% = no drug treatment (Table 3)): 52 ± 0.22%; inhibition at 50 µM (PC3 cells; Homo sapiens, PC-3, 50 μM): ~50%; Percentage of Lysed Cells (PC3 cells; PC3, 50 μM Risperidone and/or 50 μM CLA, 1 μM Testosterone (T) where added, 96 hours (Table 5)): 52 ± 1.7%; growth inhibition of PC3 cells (PC3 cells; either 25 μM or 50 μM Risperidone alone (Table 4 experiment)): 20-30%; Oxidative Activity Rate (HSD10): 1.0 µM/min; Reductive Activity Rate (HSD10): 3.3 µM/min; inhibition at 50 µM (HSD10; read-out: Oxidative Activity Drug Inhibition): 88%; inhibition at 50 µM (HSD10; read-out: Reductive Activity Drug Inhibition): 63%; Percentage of Lysed Cells (OVCAR-3 cells; [1]): 64 ± 0.4%; inhibition at 50 µM (OVCAR-3 cells; Homo sapiens, 50 μM): ~35%
